Laboratory results from patent publication US6737383B1, “Herbicidal oxadiazolidines” (priority 1999, dated 2004).

What was measured:
crabgrass = test: Test B pre/postemergence crabgrass; format: in vivo, Digitaria sanguinalis; details: for Crabgrass plant response rating: scale of 0 to 10 where 0 is no effect and 10 is complete control
Outline: (§1)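 Test chemicals in a non-phytotoxic solvent mixture with surfactant were sprayed preemergence onto planted seeds and postemergence onto plants 2 to 18 cm tall (1- to 4-leaf stage). After twelve to sixteen days in a greenhouse, injury was visually rated against untreated controls from 0 (no effect) to 10 (complete control).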

giant foxtail = test: Test B pre/postemergence giant foxtail; format: in vivo, Setaria faberii; details: for Giant foxtail plant response rating: scale of 0 to 10 where 0 is no effect and 10 is complete control
Outline: as §1

soybean = test: Test B pre/postemergence soybean; format: in vivo, Glycine max; details: for Soybean plant response rating: scale of 0 to 10 where 0 is no effect and 10 is complete control
Outline: as §1

sugar beet = test: Test B pre/postemergence sugar beet; format: in vivo, Beta vulgaris; details: for Sugarbeets plant response rating: scale of 0 to 10 where 0 is no effect and 10 is complete control
Outline: as §1

Alexandergrass = test: Test D Alexandergrass; format: in vivo, Brachiaria plantaginea; details: Postemergence, 0 to 100 scale
bermuda-grass = test: Test D bermudagrass; format: in vivo, Cynodon dactylon; details: Postemergence, 0 to 100 scale
common groundsel = test: Test D common groundsel; format: in vivo, Senecio vulgaris; details: Postemergence, 0 to 100 scale
dallisgrass = test: Test D dallisgrass; format: in vivo, Paspalum dilatatum; details: Postemergence, 0 to 100 scale
large crabgrass = test: Test D large crabgrass; format: in vivo, Digitaria sanguinalis; details: Postemergence, 0 to 100 scale
pitted morningglory = test: Test D pitted morningglory; format: in vivo, Ipomoea lacunosa; details: Postemergence, 0 to 100 scale
Spanishneedles = test: Test D Spanishneedles; format: in vivo, Bidens bipinnata; details: Postemergence, 0 to 100 scale
Green foxtail [1] = test: Test D green foxtail; format: in vivo; details: Rate 250 g/ha; Postemergence; 0 to 100 scale
Green foxtail [2] = test: Test D green foxtail; format: in vivo; details: Rate 250 g/ha; Postemergence; 0 to 100 scale; remark: listed apart in the source
Green foxtail [3] = test: Test D green foxtail; format: in vivo; details: Postemergence, 0 to 100 scale, 0 no injury, 100 complete control
[4] = Postemergence, Rate 125 g/ha, scale 0 to 10, 0 is no effect, 10 is complete control
[5] = Preemergence, Rate 62 g/ha, scale 0 to 10 (0 no effect, 10 complete control)
[6] = Rate 500 g/ha, Postemergence, scale 0 to 10, 0 no effect, 10 complete control
[7] = Rate 16 g/ha, 0 no injury, 100 complete control
[8] = Rate 32 g/ha, 0 no injury, 100 complete control
[9] = Rate 64 g/ha, 0 no injury, 100 complete control
[10] = Rate 125 g/ha, 0 no injury, 100 complete control

SMILES: CC(C)N(C(=O)n1oc(=O)n(CC2CCCO2)c1=O)c1ccc(F)cc1 (stereo not drawn) [Compound 343]
- Plant response rating, Crabgrass (crabgrass; [4]): 1
- Plant response rating, Crabgrass (crabgrass; [5]): 6
- Crabgrass plant response rating (0 to 10 scale) (crabgrass; Preemergence, Rate 125 g/ha): 9
- Crabgrass plant response rating (crabgrass; Preemergence, Rate 500 g/ha): 10
- Crabgrass plant response rating (crabgrass; Rate 62 g/ha, Postemergence): 1
- Plant response rating, Crabgrass (crabgrass; [6]): 6
- Plant response rating, Giant foxtail (giant foxtail; [4]): 7
- Plant response rating, Giant foxtail (giant foxtail; [5]): 10
- Giant foxtail plant response rating (0 to 10 scale) (giant foxtail; Preemergence, Rate 125 g/ha): 10
- Giant foxtail plant response rating (giant foxtail; Preemergence, Rate 250 g/ha): 10
- Giant foxtail plant response rating (giant foxtail; Preemergence, Rate 500 g/ha): 10
- Giant foxtail plant response rating (giant foxtail; Rate 62 g/ha, Postemergence): 7
- Plant response rating, Giant foxtail (giant foxtail; [6]): 9
- Plant response rating, Soybean (soybean; [4]): 1
- Plant response rating, Soybean (soybean; [5]): 0
- Soybean plant response rating (0 to 10 scale) (soybean; Preemergence, Rate 125 g/ha): 0
- Soybean plant response rating (soybean; Preemergence, Rate 250 g/ha): 0
- Soybean plant response rating (soybean; Preemergence, Rate 500 g/ha): 0
- Soybean plant response rating (soybean; Rate 62 g/ha, Postemergence): 1
- Plant response rating, Soybean (soybean; [6]): 3
- Plant response rating, Sugarbeets (sugar beet; [4]): 0
- Plant response rating, Sugarbeets (sugar beet; [5]): 0
- Sugarbeets plant response rating (0 to 10 scale) (sugar beet; Preemergence, Rate 125 g/ha): 0
- Sugarbeets plant response rating (sugar beet; Preemergence, Rate 250 g/ha): 1
- Sugarbeets plant response rating (sugar beet; Preemergence, Rate 500 g/ha): 6
- Sugarbeets plant response rating (sugar beet; Rate 62 g/ha, Postemergence): 0
- Plant response rating, Sugarbeets (sugar beet; [6]): 3
- Plant response rating, Alexandergrass (Alexandergrass; [7]): 0
- Plant response rating, Alexandergrass (Alexandergrass; [8]): 0
- Plant response rating, Alexandergrass (Alexandergrass; [9]): 50
- Plant response rating, Alexandergrass (Alexandergrass; [10]): 100
- Plant response rating, Alexandergrass (Alexandergrass; Rate 250 g/ha): 100
- Plant response rating, Bermudagrass (bermuda-grass; [7]): 0
- Plant response rating, Bermudagrass (bermuda-grass; [8]): 80
- Plant response rating, Bermudagrass (bermuda-grass; [9]): 60
- Plant response rating, Bermudagrass (bermuda-grass; [10]): 100
- Plant response rating, Bermudagrass (bermuda-grass; Rate 250 g/ha): 100
- Plant response rating, Com. groundsel (common groundsel; [7]): 0
- Plant response rating, Com. groundsel (common groundsel; [8]): 40
- Plant response rating, Com. groundsel (common groundsel; [9]): 100
- Plant response rating, Com. groundsel (common groundsel; [10]): 100
- Plant response rating, Com. groundsel (common groundsel; Rate 250 g/ha): 100
- Plant response rating, Dallisgrass (dallisgrass; [7]): 0
- Plant response rating, Dallisgrass (dallisgrass; [8]): 30
- Plant response rating, Dallisgrass (dallisgrass; [9]): 90
- Plant response rating, Dallisgrass (dallisgrass; [10]): 90
- Plant response rating, Dallisgrass (dallisgrass; Rate 250 g/ha): 100
- Plant response rating, Large crabgrass (large crabgrass; [7]): 0
- Plant response rating, Large crabgrass (large crabgrass; [8]): 30
- Plant response rating, Large crabgrass (large crabgrass; [9]): 90
- Plant response rating, Large crabgrass (large crabgrass; [10]): 100
- Plant response rating, Large crabgrass (large crabgrass; Rate 250 g/ha): 100
- Plant response rating, P. morninglory (pitted morningglory; [7]): 0
- Plant response rating, P. morninglory (pitted morningglory; [8]): 0
- Plant response rating, P. morninglory (pitted morningglory; [9]): 0
- Plant response rating, P. morninglory (pitted morningglory; [10]): 0
- Plant response rating, P. morninglory (pitted morningglory; Rate 250 g/ha): 0
- Plant response rating, Spanishneedles (Spanishneedles; [7]): 0
- Plant response rating, Spanishneedles (Spanishneedles; [8]): 0
- Spanishneedles plant response rating (Spanishneedles; [9]): 0
- Spanishneedles plant response rating (Spanishneedles; [10]): 0
- Plant response rating, Spanishneedles (Spanishneedles; Rate 250 g/ha): 20
- Plant response rating, Green foxtail (Green foxtail [1]): 100
- Plant response rating, Green foxtail (Green foxtail [2]): 100
- Plant response rating, Green foxtail (Green foxtail [3]; Rate 16 g/ha): 0
- Plant response rating, Green foxtail (Green foxtail [3]; Rate 32 g/ha): 100

SMILES: COCC(C)n1c(=O)on(C(=O)N(c2ccc(F)cc2F)C(C)C)c1=O (stereo not drawn) [Compound 357]
- Plant response rating, Crabgrass (crabgrass; [4]): 2
- Plant response rating, Crabgrass (crabgrass; [5]): 9
- Crabgrass plant response rating (0 to 10 scale) (crabgrass; Preemergence, Rate 125 g/ha): 9
- Crabgrass plant response rating (crabgrass; Preemergence, Rate 250 g/ha): 9
- Crabgrass plant response rating (crabgrass; Preemergence, Rate 500 g/ha): 10
- Crabgrass plant response rating (crabgrass; Rate 62 g/ha, Postemergence): 2
- Plant response rating, Crabgrass (crabgrass; [6]): 5
- Plant response rating, Giant foxtail (giant foxtail; [4]): 8
- Plant response rating, Giant foxtail (giant foxtail; [5]): 10
- Giant foxtail plant response rating (0 to 10 scale) (giant foxtail; Preemergence, Rate 125 g/ha): 10
- Giant foxtail plant response rating (giant foxtail; Preemergence, Rate 250 g/ha): 10
- Giant foxtail plant response rating (giant foxtail; Preemergence, Rate 500 g/ha): 10
- Giant foxtail plant response rating (giant foxtail; Rate 62 g/ha, Postemergence): 8
- Plant response rating, Giant foxtail (giant foxtail; [6]): 9
- Plant response rating, Soybean (soybean; [4]): 2
- Plant response rating, Soybean (soybean; [5]): 0
- Soybean plant response rating (0 to 10 scale) (soybean; Preemergence, Rate 125 g/ha): 0
- Soybean plant response rating (soybean; Preemergence, Rate 250 g/ha): 0
- Soybean plant response rating (soybean; Preemergence, Rate 500 g/ha): 0
- Soybean plant response rating (soybean; Rate 62 g/ha, Postemergence): 2
- Plant response rating, Soybean (soybean; [6]): 3
- Plant response rating, Sugarbeets (sugar beet; [4]): 0
- Plant response rating, Sugarbeets (sugar beet; [5]): 2
- Sugarbeets plant response rating (0 to 10 scale) (sugar beet; Preemergence, Rate 125 g/ha): 3
- Sugarbeets plant response rating (sugar beet; Preemergence, Rate 250 g/ha): 5
- Sugarbeets plant response rating (sugar beet; Preemergence, Rate 500 g/ha): 6
- Sugarbeets plant response rating (sugar beet; Rate 62 g/ha, Postemergence): 0
- Plant response rating, Sugarbeets (sugar beet; [6]): 0
- Plant response rating, Alexandergrass (Alexandergrass; [7]): 0
- Plant response rating, Alexandergrass (Alexandergrass; [8]): 20
- Plant response rating, Alexandergrass (Alexandergrass; [9]): 100
- Plant response rating, Alexandergrass (Alexandergrass; [10]): 100
- Plant response rating, Alexandergrass (Alexandergrass; Rate 250 g/ha): 100
- Plant response rating, Bermudagrass (bermuda-grass; [7]): 90
- Plant response rating, Bermudagrass (bermuda-grass; [8]): 100
- Plant response rating, Bermudagrass (bermuda-grass; [9]): 100
- Plant response rating, Bermudagrass (bermuda-grass; [10]): 100
- Plant response rating, Bermudagrass (bermuda-grass; Rate 250 g/ha): 100
- Plant response rating, Com. groundsel (common groundsel; [8]): 40
- Plant response rating, Com. groundsel (common groundsel; [9]): 100
- Plant response rating, Com. groundsel (common groundsel; [10]): 100
- Plant response rating, Com. groundsel (common groundsel; Rate 250 g/ha): 100
- Plant response rating, Dallisgrass (dallisgrass; [7]): 0
- Plant response rating, Dallisgrass (dallisgrass; [8]): 20
- Plant response rating, Dallisgrass (dallisgrass; [9]): 100
- Plant response rating, Dallisgrass (dallisgrass; [10]): 100
- Plant response rating, Dallisgrass (dallisgrass; Rate 250 g/ha): 100
- Plant response rating, Large crabgrass (large crabgrass; [7]): 100
- Plant response rating, Large crabgrass (large crabgrass; [8]): 100
- Plant response rating, Large crabgrass (large crabgrass; [9]): 100
- Plant response rating, Large crabgrass (large crabgrass; [10]): 100
- Plant response rating, Large crabgrass (large crabgrass; Rate 250 g/ha): 100
- Plant response rating, P. morninglory (pitted morningglory; [7]): 0
- Plant response rating, P. morninglory (pitted morningglory; [8]): 0
- Plant response rating, P. morninglory (pitted morningglory; [9]): 0
- Plant response rating, P. morninglory (pitted morningglory; [10]): 0
- Plant response rating, P. morninglory (pitted morningglory; Rate 250 g/ha): 0
- Plant response rating, Spanishneedles (Spanishneedles; [7]): 10
- Plant response rating, Spanishneedles (Spanishneedles; [8]): 10
- Spanishneedles plant response rating (Spanishneedles; [9]): 10
- Spanishneedles plant response rating (Spanishneedles; [10]): 10
- Plant response rating, Spanishneedles (Spanishneedles; Rate 250 g/ha): 20
- Plant response rating, Green foxtail (Green foxtail [1]): 100
- Plant response rating, Green foxtail (Green foxtail [2]): 100
- Plant response rating, Green foxtail (Green foxtail [3]; Rate 16 g/ha): 10
- Plant response rating, Green foxtail (Green foxtail [3]; Rate 32 g/ha): 30
